Data as given in patent publication US12617770B2, “IRAK inhibitor and preparation method therefor and use thereof” (WUHAN CREATERNA SCIENCE AND TECHNOLOGY CO., LTD., priority 2019, dated 2026).

What was measured:
CYP3A4 [1] = biological target: T1, CYP3A4 (Homo sapiens, UniProt P08684); test: Time-dependent inhibition (TDI) of CYP3A4 in human liver microsomes; assay type: in vitro ADME; settings: probe substrate midazolam
T1 construct: The test compounds were co-incubated with the human liver microsomes and a probe substrate midazolam (CYP3A4); tissue Corning (USA); host or cells: mixed (pooled) human liver microsomes
T1 sequence (P08684 whole entry): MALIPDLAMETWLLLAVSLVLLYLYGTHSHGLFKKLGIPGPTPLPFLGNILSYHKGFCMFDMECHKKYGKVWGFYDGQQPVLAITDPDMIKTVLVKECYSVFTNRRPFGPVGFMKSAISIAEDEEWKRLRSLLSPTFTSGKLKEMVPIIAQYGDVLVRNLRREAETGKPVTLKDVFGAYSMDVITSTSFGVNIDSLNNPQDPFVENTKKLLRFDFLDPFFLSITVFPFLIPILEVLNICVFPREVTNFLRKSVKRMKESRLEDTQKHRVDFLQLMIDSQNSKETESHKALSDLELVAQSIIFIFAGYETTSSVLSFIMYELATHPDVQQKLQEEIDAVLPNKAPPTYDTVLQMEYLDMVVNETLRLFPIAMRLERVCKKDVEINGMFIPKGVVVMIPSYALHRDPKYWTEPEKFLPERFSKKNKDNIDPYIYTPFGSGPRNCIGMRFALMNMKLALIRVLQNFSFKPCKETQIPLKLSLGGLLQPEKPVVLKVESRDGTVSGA
Protocol: This study was intended to investigate the time-dependent inhibition effect of the compounds on CYP3A4 in human P450 superfamily. The mixed human liver microsomes used in this assay were purchased from Corning (USA).
The test compounds were co-incubated with the human liver microsomes and a probe substrate midazolam (CYP3A4), and the concentration of the test compounds was set at 30 μM. The reaction was initiated by adding coenzyme NADPH, and terminated by adding acetonitrile dossolved with internal standard in advance. After the proteins were precipitated, the supernatant was centrifuged. The characteristic metabolite 1-hydroxy-midazolam (CYP3A4) in the supernatant was analyzed by LC-MS/MS. The influence of the test compounds on production of the characteristic metabolites was finally analyzed on the basis of the data obtained. A selective inhibitor (verapamil for CYP3A4-M) was used as positive control.

TNF-α release = test: Inhibition of cytokine TNF-α release in LPS-induced Balb/c female mice; assay type: in vivo; settings: oral gavage 16 h before LPS (i.p. 0.2 mg/kg); serum 1.5 h after stimulation
Protocol: Female Balb/c mice were randomized into groups, each containing 4 mice, including a control+vehicle group, a model+vehicle group, a model+reference group and model+compound groups. The control animals received an intraperitoneal injection of normal saline (10 mL/kg) and the model animals received LPS stimulation (Sigma CAT #L2630, i.p., 10 mL/kg, 0.2 mg/kg). To the test compounds, DMSO, Solutol and 10 mM PBS were sequentially added to prepare a solution or suspension of required concentration for administration. For the vehicle, DMSO, Solutol and 10 mM PBS were mixed in a volume ratio of 5:15:80. The animals were administered through oral gavage (10 mL/kg) 16 h before LPS (or saline) stimulation at predetermined doses, and euthanized with CO2 at 1.5 h after the stimulation for cardiac blood collection. The whole blood was not anticoagulated, incubated in wet ice for 1.5 h, and centrifuged at 2000×g at 4° C. for 10 min to separate the serum. Serum was frozen at −80° C. for TNF-α assay. Quantification of TNF-α was done by TNF-α ELISA kit according to the manufacturer's instructions. The readings of absorbance at A450 were measured with a microplate reader SpectraMax i3x (Molecular Device) for calculating the inhibition of the compounds, and IC50 was calculated with GraphPad Prism 7.0 software. […] In particular, some exemplary compound inhibition rate values are as follows: […]

[2] = Pharmacokinetic study, single oral gavage dosing; assay type: in vivo; settings: mouse, 40 mg/kg, 40 mpk, 15% solutol HS15 + 85% PBS, ICR mice, plasma
[3] = Plasma protein binding (PPB), equilibrium dialysis, rat plasma; assay type: in vitro ADME; settings: 5 h at 37° C., read-out: Plasma protein binding (Bound %) Rat (converted)
Protocol: (§1) The experiment is intended to determine plasma protein binding (PPB) data of the test compounds disclosed herein.
(§2) In the PPB experiment, the final administration matrix contained the test compound or a reference compound with a concentration of 1 μM and DMSO with a content of 0.2%.
(§3) Collecting samples in initial time: 25 μL of the matrix containing the compound was added into a blank 96-well collecting plate, and the plate was stored at −20° C.
(§4) An equilibrated dialysis device was prepared. 100 μL of buffer was added to the receiving side of the equilibrium dialysis plate. Then 100 μL of the administration matrix containing the compound or the reference compound was added into an administration side of the equilibrium dialysis plate. The prepared equilibrium dialysis plate was placed in a 37° C. shaker to be shaken for 5 h at 60 rpm.
(§5) Sample was prepared at the end of cultivation (5 h): Preparing sample in the receiving side: 25 μL of sample from a receiving side was taken out and placed in a 96-well sample collecting plate, and 25 μL of a corresponding matrix (blank plasma) was added for mixing: 200 μL of ACN containing an internal standard was added, shaken for 10 minutes at 600 rpm, and centrifuged at 5594 g for 15 min.
(§6) Preparing sample in the administration side: 25 μL of the sample containing test compound and reference compound from the administration side was taken out and 25 μL of a blank buffer was added for mixing; 200 μL of ACN containing an internal standard was added, shaken for 10 minutes at 600 rpm, and centrifuged at 5594 g for 15 min.
(§7) Preparing sample in initial time: the sample containing test compound and reference compound was re-melted at 37° C. in initial time and then mixed with the corresponding matrix (blank buffer) in the same volume (25 μL); 200 μL of ACN containing an internal standard was added, shaken for 10 minutes at 600 rpm, and centrifuged at 5594 g for 15 min.
(§8) After all the samples were centrifuged, 50 μL of a supernatant was taken and added into 50 μL of ultrapure water for mixing, and the samples were sent to liquid chromatography-mass spectrometry.

human IRAK4 = biological target: T2, human IRAK4 (Homo sapiens, UniProt Q9NWZ3); test: IRAK4 MSA (Mobility-Shift Assay) at Km concentration of ATP; assay type: biochemical; settings: GST-IRAK4 1 nM, ATP 37 μM (Km); read-out: IC50 for inhibiting human IRAK4 activity
T2 construct: purchased Cama (so in the source)
T2 sequence (Q9NWZ3 1-460): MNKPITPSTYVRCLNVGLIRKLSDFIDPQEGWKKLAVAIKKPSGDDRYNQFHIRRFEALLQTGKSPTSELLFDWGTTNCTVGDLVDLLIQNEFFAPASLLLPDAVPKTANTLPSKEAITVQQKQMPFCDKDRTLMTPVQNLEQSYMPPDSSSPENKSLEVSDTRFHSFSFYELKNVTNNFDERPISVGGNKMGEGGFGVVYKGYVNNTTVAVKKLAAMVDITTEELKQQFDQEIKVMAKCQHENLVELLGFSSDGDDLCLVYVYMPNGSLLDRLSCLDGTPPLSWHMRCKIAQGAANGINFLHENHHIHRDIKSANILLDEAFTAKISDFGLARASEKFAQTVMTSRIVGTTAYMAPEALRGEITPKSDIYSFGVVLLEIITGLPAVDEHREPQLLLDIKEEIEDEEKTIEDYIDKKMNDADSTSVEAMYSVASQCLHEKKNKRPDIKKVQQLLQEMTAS
Protocol: A recombinant fusion protein of N-terminal GST (glutathione-S-transferase) and human IRAK4 was used as enzyme (GST-IRAK4, kinase IRAK4 (Cama, CAT No. 09-145)) at a final concentration of 1 nM; ATP (Sigma. CAT No. A7699-1G) was at a final concentration of 37 μM; • the substrates used for the kinase reaction were 5-FAM (5-carboxyfluorescein)-labeled polypeptide (5-FAM-[…]-COOH) and substrate peptide FAM-P8 (GL Biochem, CAT No. 112396) at final concentrations of 5 μM.
In this assay, 500 μM stock solutions of the compounds were prepared in 100% DMSO, and serially 4-fold diluted to the 10th concentration gradient with 100% DMSO, followed by a 10-fold dilution in the compound buffer (50 mM HEPES, pH 7.5, 0.00015% Brij-35) to give intermediate dilutions of the compounds at a final concentration of 10 μM−0.04 nM containing 10% DMSO. 5 μL of the intermediate dilution was transferred into a black 384-well plate.
IRAK4 was diluted to 2.5 nM in the kinase buffer (50 mM HEPES, pH 7.5, 0.00015% Brij-35, 2 mM DTT). 10 μL of the IRAK4 dilution was transferred to the 384-well plate and co-incubated with the compound for 10-15 min.
The substrate and ATP were diluted to 12.5 μM and 92.5 μM with reaction buffer (50 mM HEPES, pH 7.5, 0.00015% Brij-35, 10 mM MgCl2), respectively. 10 μL of the dilution was transferred to a 384-well plate and incubated at 28° C. for 1 h. The reaction was terminated by adding 25 μL of 50 mM EDTA to the 384-well plate.
The inhibition rate of IRAK4 by the compounds was calculated by measuring the rate of phosphorylated substrate using a Caliper EZ Reader (PerkinElmer) and the IC50 was calculated by XL-fit software. […] In particular, some exemplary compound activity values are as follows: […]

[4] = Plasma protein binding (PPB), equilibrium dialysis, mouse plasma; assay type: in vitro ADME; settings: 5 h at 37° C., read-out: Plasma protein binding (Bound %) Mouse (converted)
Protocol: as §1, §2, §3, §4, §5, §6, §7, §8

[5] = Plasma protein binding (PPB), equilibrium dialysis, human plasma; assay type: in vitro ADME; settings: 5 h at 37° C., read-out: Plasma protein binding (Bound %) Human (converted)
Protocol: as §1, §2, §3, §4, §5, §6, §7, §8

CYP3A4 [6] = biological target: T1, CYP3A4; test: CYP450 inhibition in human liver microsomes, CYP3A4-M; assay type: in vitro ADME; settings: human, microsomes
Protocol: (§9) This study was intended to investigate the inhibitory effect of the test compounds on 5 major enzymes in human P450 superfamily, CYP1A2, 2C9, 2C19, 2D6 and 3A4-M. The mixed human liver microsomes used in this assay were purchased from Corning (USA). The test compound (compound 14) was co-incubated at 7 concentrations with human liver microsomes and five probe substrates (phenacetin for CYP1a2, diclofenac for CYP2C9, mephenytoin for CYP2C19, dextromethorphan for CYP2D6, midazolam for CYP3A4-M, mixed). The reaction was initiated by adding coenzyme NADPH, and terminated by adding acetonitrile containing internal standard. After the proteins were precipitated, the supernatant was centrifuged. The characteristic metabolites in the supernatant (acetaminophen for CYP1A2, 4-hydroxydiclofenac for CYP2C9, 4-hydroxymephenytoin for CYP2C19, dextrorphan for CYP2D6, 1-hydroxymidazolam for CYP3A4-M) were analyzed by LC-MS/MS. The influence of the test compounds on production of the characteristic metabolites was finally analyzed on the basis of the data obtained. A selective inhibitor (ketoconazole for CYP3A4-M) may be used as positive control. All samples were tested in duplicate.

CYP2D6 = biological target: T3, CYP2D6 (Homo sapiens, UniProt P10635); test: CYP450 inhibition in human liver microsomes, CYP2D6; assay type: in vitro ADME; settings: human, microsomes
T3 construct: co-incubated at 7 concentrations with human liver microsomes and five probe substrates; tissue Corning (USA); host or cells: mixed (pooled) human liver microsomes
T3 sequence (P10635 whole entry): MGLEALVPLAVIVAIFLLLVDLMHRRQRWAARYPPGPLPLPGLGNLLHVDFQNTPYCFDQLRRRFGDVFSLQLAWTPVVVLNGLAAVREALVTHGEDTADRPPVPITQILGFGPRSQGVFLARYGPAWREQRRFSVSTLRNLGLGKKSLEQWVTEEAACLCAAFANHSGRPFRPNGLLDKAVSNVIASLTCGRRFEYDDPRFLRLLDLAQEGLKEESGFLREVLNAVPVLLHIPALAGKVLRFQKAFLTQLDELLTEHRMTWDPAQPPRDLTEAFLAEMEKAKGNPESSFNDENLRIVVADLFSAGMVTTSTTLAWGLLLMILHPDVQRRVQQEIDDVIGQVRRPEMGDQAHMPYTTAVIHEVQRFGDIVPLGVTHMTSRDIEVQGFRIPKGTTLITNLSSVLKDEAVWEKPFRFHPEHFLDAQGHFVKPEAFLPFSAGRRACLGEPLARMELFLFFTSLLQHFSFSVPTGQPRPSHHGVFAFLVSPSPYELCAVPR
Protocol: as §9

| TDI (3A4, 30 μM) (CYP3A4 [1]) | AUC(0-t) ([2]; read-out: Area under curve AUC0-t) [µg·h/mL] | AUC(0-inf) ([2]; read-out: Area under curve AUC0-∞) [µg·h/mL] | MRT ([2]; read-out: Average retention time MRT) [h] | half-life ([2]; read-out: Half life t1/2 (converted)) [h] | Cmax ([2]; read-out: Peak concentration Cmax) [ng/mL] | Tmax ([2]; read-out: Time to peak tmax) [h] | fraction unbound at 5 h, 1 μM [3] | IC50 (human IRAK4) [nM] | fraction unbound at 5 h, 1 μM [4] | fraction unbound at 5 h, 1 μM [5] | IC50 (CYP3A4 [6]) [nM] | IC50 (CYP2D6) [nM] | SMILES | Inhibition rate (%) of TNF-α (TNF-α release) [%] |
| --- | --- | --- | --- | --- | --- | --- | --- | --- | --- | --- | --- | --- | --- | --- |
| +3.85% |  |  |  |  |  |  |  |  |  |  |  |  | COc1cc2nn([C@H]3CC[C@H](O)CC3)cc2cc1NC(=O)c1cccc(C2CC2)[n+]1[O-] [Compound 014, 2-cyclopropyl-6-((2-((1r,4r)-4-hydroxycyclohexyl)-6-methoxy-2H-indazol-5-yl)carbamoyl)pyridine 1-oxide] |  |
|  | 160 | 182 | 10.4 | 7.23 | 18900 | 1 | 0.183 | 7.6 | 0.238 | 0.191 |  |  | COc1cc2nn([C@H]3CC[C@H](O)CC3)cc2cc1NC(=O)c1cccc(C)[n+]1[O-] [Compound 013, 2-((2-((1r,4r)-4-hydroxycyclohexyl)-6-methoxy-2H-indazol-5-yl)carbamoyl)-6-methylpyridine 1-oxide] | 76.29 |
|  |  |  |  |  |  |  | 0.13 |  | 0.148 | 0.0098 | > 30000 | > 30000 | CC(C)(O)CCn1cc2cc(NC(=O)c3cccc(C(F)(F)F)n3)c(C(C)(C)O)cc2n1 [A, reference compound] |  |
|  |  |  |  |  |  |  | 0.099 | 8.1 | 0.123 | 0.131 |  |  | CCOc1cc2nn([C@H]3CC[C@H](O)CC3)cc2cc1NC(=O)c1cccc(C)[n+]1[O-] [Compound 016, 2-((6-ethoxy-2-((1r,4r)-4-hydroxycyclohexyl)-2H-indazol-5-yl)carbamoyl)-6-methylpyridine 1-oxide] | 78.71 |
